Data: article PMC6814738, “Bacterial MgrB peptide activates chemoreceptor Fpr3 in mouse accessory olfactory system and drives avoidance behaviour” (Nature Communications, 2019)
Entries after “also recorded” stand apart in the source; their conditions may differ. Peptide text beside a SMILES is read from it. * marks the point of attachment. For = O=C*

Columns and labels:
Fpr3-expressing VSNs = assay: Egr1 induction in Fpr3-positive VSNs after voluntary peptide uptake in freely behaving mice, RNAscope (Fig. 7d, f); format: in vivo, mouse; settings: male B6 mice
Experimental: For each mouse, serial coronal VNO cryosections (12 µm) were collected as two alternate sets, each representing every second section of the whole VNO. One set was subjected to RNAscope in situ hybridisation using the RNAscope Fluorescent Multiplex Detection Kit (ACD Bio-Techne) and specific probes for Fpr3 and LacZ according to the manufacturer’s protocol. Sections were incubated in 1 x citrate buffer pH 6.0 (DAKO, Germany) for 5 min at 98 °C in a coplin jar, rinsed twice in distilled water, dehydrated in 100% ethanol, and air dried prior to protease III treatment for 30 min at 40 °C. […] Following hybridisation (2 h, 40 °C), sections were rinsed twice for 2 min in wash buffer (ACD Bio-Techne), and sequentially treated with amplification solutions at 40 °C (30 min Amp1-FL, 15 min Amp2-FL, 30 min Amp3-FL) and fluorescence reagent (15 min, 40 °C Amp4-altC), with intermitting washing steps at room temperature between reagents. Cell nuclei were stained with DAPI solution (ACD Bio-Techne) for 1 min, and tissue sections were mounted with DAKO fluorescence medium and stored for 12 h at 4 °C. Fluorescence images of the RNAscope results were acquired from each section using a Zeiss LSM 880 confocal microscope containing a 32-channel GaAsP-PMT and 2-channel PMT QUASAR detector. […]

[1] = system: vomeronasal sensory neurons (VSNs); assay: Density of responding VSN knobs in mice of various genotypes, Rhod-2 Ca2+ imaging (Fig. 7a, b); format: cell-based, mouse; settings: f-MKKFRW 1 µM or PUM; for density of responding knobs: mean ± s.d.
Text: Mice (6–20 week old, either sex) were euthanized by CO2 inhalation according to institutional guidelines. After decapitation, the skin was removed from the skull, the mandible was cut off and the cranium was opened by a sagittal cut, 1–2-mm right-lateral in parallel to the midline. The palate and the right incisor were removed and the hemisected skull was mounted in low-melting agarose (4%). The bony capsule of the VNO was opened with fine forceps and the nonsensory epithelium was stripped off. Tissue and cell debris were gently washed off, and the en face preparation was superfused with physiological S1 solution (120 mM NaCl, 25 mM NaHCO3, 5 mM KCl, 1 mM MgSO4, 1 mM CaCl2, 10 mM glucose, 5 mM BES, pH 7.3) saturated with carbogen (95% O2, 5% CO2).
Loading of the VNE with Rhod-2/AM (5–15 µM, 1 h) was performed in S1 solution under carbogen atmosphere at RT. Images were taken with an upright confocal laser scanning microscope (Leica TCS SP5 II, 20x water immersion objective HCX APO L20x/1.0w) equipped with Ar and He/Ne lasers. GFP was excited at 488 nm, Venus at 514 nm and Rhod-2 at 543 nm. Emission was measured at 490–520 nm (GFP), 520–600 nm (Venus) and 560–680 nm (Rhod-2). To minimise interference between Venus and Rhod-2 fluorescence, images were taken sequentially (sample interval per image, 3–4 s). Peptide stimuli were applied to the VNE surface with a local perfusion system which, when positioned close to the anterior end of the VNO, produced a continuous solution stream from rostral to caudal along the VNO axis. Data analysis was performed with the open source software ImageJ (NIH). Ca^2+ responses of individual dendritic knobs were normalised to the knob resting fluorescence level obtained before stimulation (ratio Fx/F0, Fx = actual fluorescence; F0 = mean fluorescence of 3–5 images before ligand application). Mapping was performed by superimposing Ca^2+ peak images onto images showing intrinsic fluorescence for specific markers.
Predator urine mix was composed of urine from mountain lion, coyote, bobcat, fox and marten (at equal volume ratios), purchased from Predatorpee (USA) and Kieferle (Germany). The fMet peptides were as described above. Stimuli were applied in S2 solution (140 mM NaCl, 5 mM KCl, 10 mM HEPES, 1 mM CaCl2, 1 mM MgCl2, 10 mM glucose, pH 7.3 with NaOH).
For calculations of VSN knob density, we analysed randomly selected VNE areas, each containing several hundred knobs. The mean density of OMP-GFP+ knobs was 11.25 knobs/100 µm². Through the knob density and the VNE surface area, an estimate of the total number of VSNs per VNO can be made. Assuming a mean lumen diameter of 450 µm, a length of 2 mm and an end-to-end semilunar cross-sectional shape of the VNO, a number of ~150,000 VSNs (per side) can be estimated. This number is consistent with our previous estimates.

[2] = B6, B2m-Venus+/− and NP2∆+/− mice pooled, n = 14 mice

## CSCC[C@H](NC=O)C(=O)N[C@@H](CCCCN)C(=O)N[C@@H](CCCCN)C(=O)N[C@@H](Cc1ccccc1)C(=O)N[C@@H](CCCNC(=N)N)C(=O)N[C@@H](Cc1c[nH]c2ccccc12)C(=O)O [f-MKKFRW] (For-MKKFRW-OH)
Fpr3-expressing VSNs; 100 µM in 50% FEU, mean ± s.d.
  fraction of Fpr3-positive VSNs co-localised with Egr1: 0.46 ± 0.12
Fpr3-expressing VSNs; 100 µM
  Egr1-positive / Fpr3-positive VSNs: 77/160
[1]; 129Sv mice
  VSN Ca2+ responses, in words: no responses; also recorded: fail to respond
[1]; B2m-Venus +/−
  density of responding knobs: 0.2 ± 0.1%
[1]; B6
  density of responding knobs: 0.12 ± 0.04%
[1]; NP2∆ +/−
  density of responding knobs: 0.2 ± 0.09%
[1]; Trpc2 −/− mice
  VSN Ca2+ responses, in words: absent; also recorded: fail to respond
[1]; cGαo −/− mice
  VSN Ca2+ responses, in words: absent; also recorded: fail to respond
[1]; [2]
  density of responding knobs, mean: 0.16 ± 0.08%
  density of responding knobs, range: 0.07 to 0.29%
[1]; ∆Fpr3-lacZ −/− mice
  VSN Ca2+ responses, in words: absent; also recorded: fail to respond
